Results: the CheMixHub ionic liquid set

Assay: xn = mol fraction of the nth substance listed

CCC[n+]1ccn(C)c1.COS(=O)(=O)[O-] + O
viscosity [mPa·s], 101 kPa
Conditions	298.15 K	308.15 K	318.15 K	328.15 K
x1 = 0.000281	0.799	0.699	0.62	0.566
x1 = 0.0007725	0.805	0.709	0.638	0.57
x1 = 0.0009344	0.814	0.717	0.642	0.575
x1 = 0.001368	0.819	0.727	0.647	0.58
x1 = 0.001628	0.813	0.735	0.66	0.588
x1 = 0.002412	0.829	0.758	0.658	0.602
x1 = 0.004829	0.838	0.796	0.702	0.647
x1 = 0.007746	0.886	0.847	0.757	0.701
x1 = 0.009565	0.931	0.888	0.81	0.736
x1 = 0.01237	0.999	0.93	0.865	0.79
x1 = 0.01639	1.113	1.021	0.963	0.878
x1 = 0.01912	1.182	1.072	1.017	0.953
x2 = 0.9709	1.48	1.268	1.247	1.122
x2 = 0.9746	1.387	1.205	1.167	1.054

CC[n+]1ccn(C)c1.COP(=O)([O-])OC + O
101 kPa
Conditions	viscosity [mPa·s]
293.15 K, x2 = 0.198	292
298.15 K, x2 = 0.198	212
303.15 K, x2 = 0.198	157.4
318.15 K, x2 = 0.198	73.7
318.15 K, x2 = 0.399	52.73
318.15 K, x2 = 0.799	11.57
328.15 K, x2 = 0.399	35.56
333.15 K, x2 = 0.198	40.33

CC[n+]1ccn(C)c1.F[B-](F)(F)F + O
298 K, 101 kPa
Conditions	electrical conductivity [S/m]
x2 = 0.78	8.27
x2 = 0.84	8.63

CC[n+]1ccn(C)c1.O=S(=O)([N-]S(=O)(=O)C(F)(F)F)C(F)(F)F + O
Conditions	electrical conductivity [S/m]	viscosity [mPa·s]
297.55 K, 101 kPa, x1 = 0.889	–	26
297.85 K, 101 kPa, x2 = 0.205	1.22	–
298 K, 101 kPa, x2 = 0.02	–	32.3
298 K, 101 kPa, x2 = 0.0629	–	30.8
298 K, 101 kPa, x2 = 0.199	–	25.4
298 K, 101 kPa, x2 = 0.227	–	25.2
298.15 K, 101 kPa, x2 = 0.205	1.3	–
299.15 K, 101 kPa, x2 = 0.205	1.32	–
300.35 K, 101 kPa, x2 = 0.205	1.38	–
302.15 K, 101 kPa, x2 = 0.205	1.45	–
302.85 K, 101 kPa, x2 = 0.205	1.51	–
303.15 K, 100 kPa, x2 = 0.298	–	16.23
303.95 K, 101 kPa, x2 = 0.205	1.61	–
304.95 K, 101 kPa, x2 = 0.205	1.66	–
313.15 K, 100 kPa, x2 = 0.298	–	12.29
333.15 K, 100 kPa, x2 = 0.298	–	7.749

C[N+](C)(C)Cc1ccccc1.[Cl-] + O
electrical conductivity [S/m], 101.3 kPa, frequency 0.001 MHz
Conditions	298.15 K	308.15 K	318.15 K
x1 = 1.802e-05	0.0137	0.0183	0.0233
x1 = 5.406e-05	0.0295	0.0398	0.0456
x1 = 9.009e-05	0.0457	0.0565	0.0643

viscosity [mPa·s]
Conditions	298.15 K	303.15 K	308.15 K	318.15 K
100 kPa, x1 = 0.0004874	–	0.813	–	–
101.3 kPa, x1 = 1.802e-05	0.88	–	–	0.611
101.3 kPa, x1 = 5.406e-05	–	–	0.747	0.627
101.3 kPa, x1 = 9.009e-05	0.914	–	0.766	0.646

O=C[O-].OCC[NH2+]CCO + O
100 kPa
Conditions	viscosity [mPa·s]
293.15 K, x1 = 0.075	3.25
293.15 K, x1 = 0.3185	36.2
293.15 K, x1 = 1	471
303.15 K, x1 = 0.0292	1.34
303.15 K, x1 = 0.7987	172
313.15 K, x1 = 0.075	1.99
333.15 K, x1 = 0.3185	8.4
333.15 K, x1 = 0.7987	40.4
343.15 K, x1 = 0.5932	15.3
343.15 K, x1 = 1	35.9
